Legend:
[1] = test system: HIV sero-positive AIDS patients; experiment: Topical DPC skin reaction test (Reactors/Non-Reactors) in a 28-day observational clinical trial; assay type: in vivo, human; details: for # Non-Reactor Patients / # Non-Reactor Patients (%) / # Reactor Patients / # Reactor Patients (%): right forearm
Experimental: (§1) For the examples, HIV sero-positive AIDS patients were tested based on HIV sero-positivity for a 28-day observational clinical trial. 40 subjects completed the study. Topical 0.1 ml applications of 0.4%, 0.2%, 0.1%, 0.05% Diphenylcyclopropenone in a proprietary anhydrous skin penetrating vehicle plus the vehicle placebo were made to the inner aspect of the forearms of patients and covered with a 1 inch adhesive bandage. Skin reactivity scores of a 4-point scaled based on induration and erythema were recorded weekly, as were side effects to the topical treatments.
For the examples, skin reaction scores were assigned using the following scale:
For the examples, patients having a skin reaction score of +2, +3 and +4 were considered to have a positive response and are labeled as “Reactors”; patients having a skin reaction score of 0 and +1 were considered to not have a response and are labeled as “Non-Reactors”.
Skin Reactions Scores as indicators of immune function responses following single applications of 0.4%, 0.2%, 0.1% and 0.05% DPC compositions were used to distinguish between patients with T Cell CD4 blood counts less than 300 per cu/mm and patients with T Cell CD4 counts higher than 300 per cu/mm.

[2] = test system: HIV sero-positive AIDS patients; experiment: Side effects of the topical treatments in the 28-day clinical trial; assay type: in vivo, human; details: 28-day study
Experimental: as §1
Subjects with CD4 counts less than 300 cu/mm were non-skin reactive. This was found in 36 of the 40 subjects. […] Statistical Sensitivity was 87.4% and Specificity was 100% with the 0.4% Topical Diphenylcyclopropenone Solution selected as the optimal dosage concentration. […] None of the subjects withdrew because of side effects.

[3] = 0.05% DPC applied, patients with CD4 <300 cu/mm
[4] = 0.05% DPC applied, patients with CD4 >300 cu/mm
[5] = 0.1% DPC applied, patients with CD4 <300 cu/mm
[6] = 0.1% DPC applied, patients with CD4 >300 cu/mm
[7] = 0.2% DPC applied, patients with CD4 <300 cu/mm
[8] = 0.2% DPC applied, patients with CD4 >300 cu/mm
[9] = 0.4% DPC applied, patients with CD4 <300 cu/mm
[10] = 0.4% DPC applied, patients with CD4 >300 cu/mm
[11] = combined 0.1% + 0.05% DPC dosages, patients with CD4 <300 cu/mm
[12] = combined 00.1% + 0.05% DPC dosages, patients with CD4 >300 cu/mm
[13] = combined 0.4% + 0.2% DPC dosages, patients with CD4 <300 cu/mm
[14] = combined 0.4% + 0.2% DPC dosages, patients with CD4 >300 cu/mm

SMILES: O=c1c(-c2ccccc2)c1-c1ccccc1 [DPC, Diphenylcyclopropenone]
- # Non-Reactor Patients [1, 3]: 2
- # Non-Reactor Patients (%) [1, 3]: 100%
- # Reactor Patients [1, 3]: 0 (0%)
- # Reactor Patients (%) [1, 3]: 0 (0%)
- # Non-Reactor Patients [1, 4]: 8
- # Non-Reactor Patients (%) [1, 4]: 100%
- # Reactor Patients [1, 4]: 0 (0%)
- # Reactor Patients (%) [1, 4]: 0 (0%)
- # Non-Reactor Patients [1, 5]: 2
- # Non-Reactor Patients (%) [1, 5]: 100%
- # Reactor Patients [1, 5]: 0 (0%)
- # Reactor Patients (%) [1, 5]: 0 (0%)
- # Non-Reactor Patients [1, 6]: 4
- # Non-Reactor Patients (%) [1, 6]: 80%
- # Reactor Patients [1, 6]: 1
- # Reactor Patients (%) [1, 6]: 20%
- # Non-Reactor Patients [1, 7]: 2
- # Non-Reactor Patients (%) [1, 7]: 40%
- # Reactor Patients (%) [1, 7]: 60%
- # Non-Reactor Patients (%) [1, 8]: 28.6%
- # Reactor Patients [1, 8]: 5
- # Reactor Patients (%) [1, 8]: 71.4%
- # Non-Reactor Patients (%) [1, 9]: 100%
- # Reactor Patients (%) [1, 9]: 0 (0%)
- # Non-Reactor Patients ([1]; 0.4% DPC applied, patients with CD4 <300 cu/mm, Non-Reactor = score 0 or +1): 4
- # Non-Reactor Patients (%) [1, 10]: 14.3%
- # Reactor Patients [1, 10]: 6
- # Reactor Patients (%) [1, 10]: 85.7%
- subjects in whom skin reactivity agreed with CD4 count (>300 cu/mm reactive, <300 cu/mm non-skin reactive) ([1]; all 40 subjects of the study): 36 of the 40
- Non-Reactors [1, 11]: 4
- Non-Reactors (%) [1, 11]: 100%
- Reactors [1, 11]: 0 (0%)
- Reactors (%) [1, 11]: 0 (0%)
- Non-Reactors [1, 12]: 12
- Non-Reactors (%) [1, 12]: 92.3%
- Reactors [1, 12]: 1
- Reactors (%) [1, 12]: 7.7%
- Non-Reactors [1, 13]: 6
- Non-Reactors (%) [1, 13]: 67%
- Reactors [1, 13]: 3
- Reactors (%) [1, 13]: 33%
- Non-Reactors [1, 14]: 3
- Non-Reactors (%) [1, 14]: 21.4%
- Reactors [1, 14]: 11
- Reactors (%) [1, 14]: 78.6%
- subjects who withdrew because of side effects ([2]; 40 subjects): None
- Side effects ([2]; topical 0.1 ml applications of 0.05-0.4% DPC): minimal and were limited to adenopathies that were self-limited and disappeared upon completion of the study

From patent US20050260136A1, “Topical immune competency diagnostic compositions and methods of use” (priority 2004, published 2005)
